{"source": "patent US20260102413A1", "about": "“TREATING PAIN ASSOCIATED WITH CENTRAL SENSITIZATION” (Medicon Pharmaceuticals, Inc., priority 2022, published 2026)", "key": {"[1]": {"system": "mice with NTG-induced migraine", "test": "von Frey PWT, NTG-induced migraine model, oral or intraperitoneal compounds", "assay_type": "in vivo, mouse", "conditions": "oral 30 min after NTG: PS 50, sulindac 33, PN 65, naproxen 35 mg/kg; 30 min after administration", "experimental": "Phosphonaproxen (Formula VIII), and its parent compound, naproxen, were administered orally to each mouse group. All compounds were administered at equimolar doses. In particular, phosponaproxen was administered at 65 mg/kg, and naproxen was administered at 35 mg/kg, 30 minutes after NTG administration. The response of mechanical allodynia was tested 30 minutes after administration."}, "[2]": {"system": "mice with paclitaxel-induced neuropathic pain (CIPN)", "test": "von Frey paw withdrawal threshold (mechanical allodynia), paclitaxel-induced CIPN / central sensitization, treatment of established pain, topical test compounds", "assay_type": "in vivo, mouse", "conditions": "paclitaxel mice; PS hydrogel 5%, sulindac 0.7% topical hind paws 3x/day from day 0; lidocaine 5% cream once 30 min before; pregabalin 10 mg/kg oral once 1 h before; day 14", "experimental": "Paw withdrawn, licking or shaking were considered positive responses.\n(§1) The first doses were administered 5 days after the last administration of paclitaxel (i.e., at day 0).\nThe PWT test was performed prior to the administration of paclitaxel (day −8) to establish the threshold in mice without neuropathic pain associated with CIPN (the value shown is an average of the PWT in all groups at day −8).\nPain associated with CIPN was established in line with the experiments disclosed herein. Mice were treated with naproxen 2.4% (equimolar to PN 5%), aspirin 1.7% (equimolar to PA2 5%); or ibuprofen 2.5% (equimolar to PI 5%) or vehicle applied topically to both hind paws 3×/day for 14 days.\nCIPN was induced in mice with chemotherapeutic agents using established protocols (Carozzi et al, 2010; Currie et al, 2019; Eldridge et al, 2020).\nThe first doses were administered 1 day after the last administration of paclitaxel (i.e., at day 0).\nas §1\nThe PWT test was performed on day 21, at the end of the experiment, but was also additionally determined on day 14 for LXIX."}, "STZ-diabetic rats": {"system": "STZ-diabetic rats", "assay_type": "in vivo, rat", "conditions": "PS 8% hydrogel, sulindac 0.7% hydrogel 3x/day day −2 to 28; lidocaine cream 5% once 30 min before; STZ day 0; day 28", "text": "The animal model corresponds to that used for Example 4, but using a prevention protocol. As in Example 4, the outcome measure, determining the effect of the treatment on the prevention of mechanical allodynia, was the PWT test, using von Frey filaments. The measurements were taken at day −3, before treatment or induction of neuropathic pain associated with DPN, and again at the end of the study period (day 28).\nThe rats were randomised into treatment groups as follows, all having an average body weight of about 225 g. • 1. Group 1: naïve rats (n=6) • 2. Group 2: STZ only (n=8) • 3. Group 3: STZ plus vehicle (n=8) • 4. […] Group 5: STZ plus sulindac 0.7% (n=8) • 6. Group 6: STZ plus lidocaine cream 5% (n=8)\nEach treatment group was subjected to a PWT assessment at day −3 in order to determine the baseline of mechanical allodynia.\nFor those rats in the lidocaine treatment group, lidocaine cream was applied only once to both hind paws of the rats 30 min before the final PWT measurement on day 28. On day 0, neuropathic pain associated with DPN was induced with the administration of STZ, and the blood glucose was checked on day 3."}, "[3]": {"system": "mice with chronic constriction injury of the left sciatic nerve (PTPN)", "test": "von Frey PWT, chronic constriction injury (CCI) model of PTPN, topical compounds", "assay_type": "in vivo, mouse", "conditions": "PS 5% gel, sulindac 0.7% gel on left paw 3x/day 14 days; pregabalin (10 mg/ml) oral gavage once 1 h before; day 14", "experimental": "The PWT test was performed following ligation, but prior to treatment to determine baseline values. The PWT was then further measured on day 14."}, "[4]": {"assay_type": "in vivo, mouse", "conditions": "all tissues except the sciatic nerve (higher) and DRG (equal)", "experimental": "At 0.5, 1, 3, 5, 12, 18, and 24 h, mice (n=4-5 mice/time point) were euthanized with CO2 inhalation. Blood was drawn immediately after death. Tissues, including paw skin, paw muscle, leg muscle, the sciatic nerve and lumbar DRG bilaterally were dissected quickly, immediately frozen in liquid nitrogen and stored at −80° C. until analyzed."}, "[5]": {"test": "drug levels in proximal and distal half of the sciatic nerve after topical PS", "assay_type": "in vivo, mouse", "conditions": "paclitaxel-PN mice, PS 8% ointment 3x/d 2 wks; 30 min after last dose", "experimental": "In a separate experiment we studied 8 mice with paclitaxel-induced PN treated with PS 8% ointment 3×/d for 2 wks. Mice were euthanized as above 30 minutes after the last dose of PS. From these mice we harvested both sciatic nerves dividing each into proximal and distal halves, and combined the corresponding halves of every two animals for assay of drug levels."}, "[6]": {"system": "mice with paclitaxel-induced CIPN", "test": "von Frey PWT, paclitaxel CIPN model, orally administered compounds", "assay_type": "in vivo, mouse", "conditions": "paclitaxel 8 mg/kg x4; oral gavage 3x/day 7 days: PS 50, sulindac 33, PN 65, naproxen 35 mg/kg; day 7", "text": "CIPN was induced in mice with chemotherapeutic agents using established protocols (Carozzi et al, 2010; Currie et al, 2019; Eldridge et al, 2020). […] This dosing regimen of paclitaxel produces pain associated with CIPN with time courses that are similar to those of pain after paclitaxel administration in cancer patients.\nGroup 1: naïve mice (i.e. no paclitaxel, n=8) • 2. Group 2: paclitaxel only (n=8) • 3. Group 3: paclitaxel plus vehicle (n=8) • 4. […] Group 5: paclitaxel pluse sulindac (n=8)\nThe PWT test was performed on day 7.\nPhospho-naproxen (PN) and naproxen were given by oral gavage, three times a day for 7 days. Their doses were as follows: PN, 65 mg/kg; naproxen, 35 mg/kg (equimolar to PN). The response of mechanical allodynia to phospho-naproxen (PN) and naproxen was tested on day 7.\n(§2) This dosing regimen of paclitaxel produces pain associated with CIPN with time courses that are similar to those of pain after paclitaxel administration in cancer patients.\nPhospho-ibuprofen (PI) (Formula III), phospho-glycerol-ibuprofen (PGI) (Formula LXXI), phospho-ibuprofen-amide (PIA) (Formula XI), and ibuprofen were given by oral gavage, three times a day for 6 days. Their doses were as follows: ibuprofen, 40 mg/kg; PI, 80 mg/kg; PIA, 80 mg/kg; all three were equimolar.\nThe response of mechanical allodynia to these compounds was tested on day 6, using the PWT test.\nas §2\nNO-sulindac (Formula XLIV), HS-sulindac (Formula XXXIV), platinum-sulindac (Formula LXVII), and NOSH-1 (Formula LIX) were given by oral gavage, three times a day throughout the study period. Their doses were all 100 mg/kg.\nThe response of mechanical allodynia to these compounds was tested on the days set out in the table below, via the PWT test.\nLXIX was given by oral gavage, once a day for 14 days at a dose of 100 mg/kg.\nThe response of mechanical allodynia to these compounds was tested on day 14, via the PWT test."}, "[7]": {"system": "mice with NTG-induced chronic migraine", "test": "von Frey PWT, NTG-induced chronic migraine model", "assay_type": "in vivo, mouse", "text": "The NTG-induced chronic migraine model was used as described previously."}}, "data": [{"smiles": "CC1=C(CC(=O)O)c2cc(F)ccc2/C1=C\\c1ccc([S+](C)[O-])cc1", "note": "(stereo not drawn) [sulindac, reference compound]", "values": [{"measurement": "PWT, g Mean ± SEM", "setting": "[1]", "value": "0.60 ± 0.04", "unit": "g"}, {"measurement": "PWT, g Mean ± SEM", "setting": "[2]", "value": "0.62 ± 0.05", "unit": "g"}, {"measurement": "von Frey, gm mean ± SEM", "setting": "STZ-diabetic rats", "value": "27.7 ± 1.4", "unit": "gm"}, {"measurement": "PWT, g Mean ± SEM", "setting": "[3]", "value": "0.63 ± 0.07", "unit": "g"}, {"measurement": "sulindac levels as % of those of PS", "setting": "[4]", "value": "around 25%"}, {"measurement": "Fold difference distal vs proximal", "setting": "[5]", "value": 8.5}, {"measurement": "PWT, g Mean ± SEM", "setting": "[6]", "value": "0.56 ± 0.05", "unit": "g"}, {"measurement": "PWT, g Mean ± SEM, Day 11", "setting": "[7]; NTG 0.4 mg sublingual every two days x5, oral once a day 11 days: PS 50, sulindac 33 mg/kg, 30 min after administration", "value": "0.43 ± 0.03", "unit": "g"}, {"measurement": "PWT, g Mean ± SEM, Baseline", "setting": "[7]; group baseline prior to NTG administration", "value": "1.80 ± 0.12", "unit": "g"}]}]}
